Conditions: mouse, in vivo, iv

Ac-WDLIQLIVSDGSDLIQLIVSD-NH2 [12B]
half-life in blood: < 10 min
